Data as given in US20240423215A1, “COMPOSITION FOR COATING PLANT SEED” (priority 2022, published 2024).

Columns and labels:
Format in all cases: in vivo
Zea mays [1] = test: Cultivation of Zea mays from coated seeds under non-stress conditions (Example 1); settings: 3 weeks after seeding
Procedure: Dent corn seeds (100 g; the variety: Snow-dent “Otoha”) were coated with 800 μl of a coating solution containing tryptophan, oxidized glutathione, polyvinyl alcohol, and a coloring dye in water using a coater (SATEC). Coating was performed using either or both of tryptophan in an amount of 0 g, 0.045 g, 0.1225 g, 0.45 g, 5 g, or 50 g and oxidized glutathione in an amount of 0 g, 3 g, 15 g, 150 g, or 300 g per ton of seeds.
Culture soil was filled into 12-cm vinyl pots, and the coated dent corn seeds were seeded at 4 grains/pot. After germination, a differently grown strain was thinned to retain 3 strains in a pot. Cultivation was performed in a glass greenhouse, and inspection was performed 21 days after seeding. The height and the fresh weight of the aboveground part were measured, and the density (the fresh weight of the aboveground part/the height) was determined. The test was repeated 6 times, and the average was determined.
(§1) The measured fresh weight of the aboveground part of plants in groups each treated with different amounts of tryptophan and oxidized glutathione was indicated as the rate of change (%), relative to the fresh weight of the aboveground part of plants in the test group (control group) treated with a coating solution not containing tryptophan or oxidized glutathione. […]

Zea mays [2] = test: Cultivation of Zea mays from seeds coated with tryptophan and reduced glutathione under non-stress conditions (Comparative Example 1); settings: 3 weeks after seeding, Trp 0.225 g and/or GSH 1-75 g per MT-seeds, FIG. 14
Procedure: Dent corn seeds (100 g; the variety: Snow-dent “Otoha”) were coated with 800 μl of a coating solution containing 0.225 g of tryptophan per ton of seeds (i.e., MT-seeds), 0, 1, 5, 15, or 75 g of reduced glutathione per MT-seeds, polyvinyl alcohol, and a coloring dye in water using a coater (SATEC).
Culture soil was filled into 12-cm vinyl pots, and the coated dent corn seeds were seeded at 4 grains/pot. After germination, a differently grown strain was thinned to retain 3 strains in a pot. Cultivation was performed in a glass greenhouse, and inspection was performed 21 days after seeding. The fresh weight of the aboveground part was measured. The test was repeated 6 times, and the average was determined.

Zea mays [3] = test: Cultivation of Zea mays from coated seeds under salt stress conditions (Example 2); settings: 3 weeks after seeding, fresh weight of aboveground part
Procedure: Dent corn seeds (100 g; the variety: Snow-dent “Otoha”) were coated with 800 μl of a coating solution containing tryptophan, oxidized glutathione, polyvinyl alcohol, and a coloring dye in water using a coater (SATEC). Coating was performed using either or both of tryptophan in an amount of 0 g, 0.009 g, 0.045 g, 0.1225 g, 0.225 g, 0.45 g, or 5 g and oxidized glutathione in an amount of 0 g, 15 g, or 75 g per ton of seeds.
(§2) Culture soil containing sodium chloride at 6.0 g/l of the soil was filled into 7.5-cm pots, and the coated dent corn seeds were seeded at 1 grain/pot. Cultivation was performed in a glass greenhouse, and inspection was performed 21 days after seeding. The height, the fresh weight of the aboveground part, and the number of leaves were measured, and the density (the fresh weight of the aboveground part/the height) was determined. The test was repeated 9 times, and the average was determined.
The rates of changes (%) in the height, the number of leaves, the fresh weight of the aboveground part, and the density (the fresh weight of the aboveground part/the height) measured or determined for the test groups, relative to those of the control group were determined.

soybean = test: Cultivation of soybean from coated seeds under salt stress conditions (Example 6); settings: 3 weeks after seeding, fresh weight of aboveground part
Procedure: (§3) Soybean seeds (100 g; the variety: Fukuyutaka) were coated with 800 μl of a coating solution containing tryptophan, oxidized glutathione, polyvinyl alcohol, and a coloring dye in water using a coater (SATEC). Coating was performed using either or both of tryptophan in an amount of 0 g, 0.045 g, 0.225 g, 0.45 g, or 5 g and oxidized glutathione in an amount of 0 g, 15 g, or 75 g per ton of seeds.
as §2, with “1.0” for “6.0”, “soybean” for “dent corn”, “The” for “The height, the”, “part,” for “part, and the number of leaves were measured, and”, “height), and the dry weight of the underground part were measured.” for “height) was determined.”
as §1

wheat [4] = test: Cultivation of wheat from coated seeds under non-stress conditions (Example 3); settings: 2 weeks after seeding, fresh weight of aboveground part
Procedure: Wheat seeds (100 g, Quintus) were coated with 800 μl of a coating solution containing tryptophan, oxidized glutathione, polyvinyl alcohol, and a coloring dye in water using a coater (SATEC). Coating was performed using either or both of tryptophan in an amount of 0 g, 0.01 g, 0.25 g, 5 g, or 10 g and oxidized glutathione in an amount of 0 g, 6 g, or 300 g per ton of seeds.
Culture soil was filled into a 96-well cell tray, the coated wheat seeds were seeded at 1 grain/cell, and inspection was performed 2 weeks after seeding. The height and the fresh weight of the aboveground part were measured, and the density (the fresh weight of the aboveground part/the height) was determined. Groups each consisting of 6 plants were subjected to the test, and the test was repeated 4 times.
(§4) The measured fresh weight of the aboveground part of plants in groups each treated with different amounts of tryptophan and oxidized glutathione was indicated as the rate of change (%), relative to the fresh weight of the aboveground part of plants in the test group (control group) treated with a coating solution not containing tryptophan or oxidized glutathione.
The density (the fresh weight of the aboveground part/the height) of the test groups was indicated as the rate of change (%), relative to the density of the control group.

Zea mays [5] = test: Cultivation of Zea mays from seeds coated with tryptophan and reduced glutathione under salt stress conditions (Comparative Example 2); settings: salt stress (NaCl 6.0 g/l soil); 3 weeks after seeding; Trp 0.225 g and/or GSH 1-75 g per MT-seeds; FIG. 15
Procedure: Dent corn seeds (100 g; the variety: Snow-dent “Otoha”) were coated with 800 μl of a coating solution containing 0.225 g of tryptophan per MT-seeds, 0, 1, 5, 15, or 75 g of reduced glutathione per MT-seeds, polyvinyl alcohol, and a coloring dye in water using a coater (SATEC).
Culture soil containing sodium chloride at 6.0 g/l of the soil was filled into 7.5-cm pots, and the coated dent corn seeds were seeded at 1 grain/pot. Cultivation was performed in a glass greenhouse, and inspection was performed 21 days after seeding. The fresh weight of the aboveground part was measured. The test was repeated 9 times, and the average was determined.
The fresh weight of the aboveground part measured for the test groups treated with different amounts of tryptophan and reduced glutathione was indicated as the rate of change (%), relative to that of the test group (the control group) treated with a coating solution not containing tryptophan or reduced glutathione.

wheat [6] = test: Cultivation of wheat from coated seeds under salt stress conditions (Example 4); settings: fresh weight of aboveground part
Procedure: as §3, with “Wheat seeds” for “Soybean seeds”, “variety: Yumechikara)” for “variety: Fukuyutaka)”, “g,” for “g, 0.045 g,”, “g, 2.25 g, 5 g, 10” for “g, 0.45”, “or 50” for “or 5”, “or 300” for “or 75”
as §2, with “4.0” for “6.0”, “wheat” for “dent corn”, “16” for “21”, “height and” for “height,”, “part” for “part, and the number of leaves”
as §1

wheat [7] = test: Cultivation of wheat from coated seeds under low-temperature stress conditions (Example 9); settings: 6 weeks after seeding
Procedure: Wheat seeds (100 g; the variety: Yumechikara) were coated with 800 μl of a coating solution containing tryptophan, oxidized glutathione, polyvinyl alcohol, and a coloring dye in water using a coater (SATEC). Coating was performed using either or both of 5 g of tryptophan per MT-seeds and 75 g of oxidized glutathione per MT-seeds. Culture soil was filled into 7.5-cm pots, and the coated wheat seeds were seeded at 1 grain/pot. Cultivation was performed in a glass greenhouse before germination, the germinated plants were transferred to and cultivated in an artificial climate chamber with a diurnal period of 12 hours set at 10° C. and a nocturnal period of 12 hours set at 5° C., and inspection was performed 6 weeks after seeding. The dry weight of the aboveground part and the dry weight of the underground part were measured. The test was repeated 8 times, and the average was determined.
In the table, “%” indicates a value calculated relative to the weight without treatment, which is designated as 100%. […] With the use of glutathione in combination with tryptophan, in addition, the dry weight of the aboveground part was increased by 17% and the dry weight of the underground part was increased by 24%, relative to the control group. Such increase was significant. […] As described above, use of glutathione in combination with tryptophan would exert effects of promoting the healthy growth under low-temperature stress conditions.

rice = test: Cultivation of rice from coated seeds under non-stress conditions (Example 7); settings: 3 weeks after seeding
Procedure: as §3, with “Rice” for “Soybean”, “Emimaru)” for “Fukuyutaka)”, “2.25” for “0.045 g, 0.225 g, 0.45”, “g” for “g, 15 g,”
Culture soil was filled into 12-cm vinyl pots, and the coated rice seeds were seeded at 5 grains/pot. Cultivation was performed in a glass greenhouse, and the fresh weight of the aboveground part was inspected 21 days after seeding. The test was repeated 6 times, and the average was determined.
as §4

Zea mays [8] = test: Field test of Zea mays, ear yield (Example 8); settings: 0.25 g tryptophan and/or 75 g GSSG per ton of seeds
Procedure: As a control group, seeds without coating were prepared.
• Location: the Wilderen MAR field, the Kingdom of Belgium • Variety: Like IT • Date of seeding: Apr.
Cultivation was performed in accordance with the conventional fertilization management technique and pest management technique, and the yield was inspected. • Inspection of yield: 120 strains/group; the number of repetition: 4

[9] = low-temperature stress (10° C./5° C.), Trp 5 g and/or GSSG 75 g per MT-seeds
[10] = low-temperature stress, Trp 5 g and/or GSSG 75 g per MT-seeds

## N[C@@H](Cc1c[nH]c2ccccc12)C(=O)O [tryptophan, L-tryptophan]
Zea mays [1]; either or both of 0.1225 g tryptophan and 150 g GSSG per ton of seeds
  increase in the fresh weight of the aboveground part compared with no treatment: 3%
Zea mays [1]; fresh weight of aboveground part
  effects of promoting the initial growth: No effects of promoting the initial growth were attained
Zea mays [2]
  rate of change in the fresh weight of the aboveground part relative to control group: 4%
Zea mays [3]
  effects of promoting the initial growth: No effects of promoting the initial growth were attained
soybean
  effects of promoting the initial growth: No effects of promoting the initial growth were attained
Wheat [4]
  effects of promoting the initial growth: No effects of promoting the initial growth were attained
Zea mays [5]
  rate of change in the fresh weight of the aboveground part relative to control group: 1%
Wheat [6]
  effects of promoting the initial growth: No effects of promoting the initial growth were attained
Wheat [7]; [9]
  Dry weight of aboveground part: 0.24 g
  Dry weight of underground part: 0.08 g
Wheat [7]; low-temperature stress
  effects of promoting the initial growth: not observed
Wheat [7]; [10]
  Dry weight of aboveground part, relative to without treatment (100%): 97%
  Dry weight of underground part, relative to without treatment (100%): 101%
rice
  effects of promoting the initial growth: Effects of promoting the initial growth were attained to some extent
Zea mays [8]; FIG. 16
  ear yield relative to the control group without coating (100%): 100.4%
Zea mays [8]; relative to control group
  increase in the ear yield: An increase was not observed in the yield
